Test results as given in PubChem BioAssay AID2060609 (Molecular Pharmacology Branch, DTP, NCI, 2025).

Test system: 855422-203-R-J1-PDC complex spheroids, viability
Assay: Anticancer human tumor 855422-203-R-J1-PDC patient-derived bladder carcinoma cell line growth inhibition [CLK]
Settings: for IC50: curve of first compound; for viability, T/C: stronger effect = lower value
Procedure, shortened: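 Patient-derived tumor cells grown as complex spheroids with HUVEC endothelial cells and mesenchymal stem cells, treated with drug combinations. Concentrations descend in half-log steps from near clinical Cmax, or from 10 microM if Cmax unknown.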

[1] = second compound 0.0316 µM, first compound 0.0316 µM
[2] = second compound 0.0316 µM, first compound 0.1 µM
[3] = second compound 0.0316 µM, first compound 0.316 µM
[4] = second compound 0.0316 µM, first compound 1 µM
[5] = second compound 0.0316 µM, first compound 3.16 µM
[6] = second compound 0.0316 µM, first compound 10 µM
[7] = second compound 0.1 µM, first compound 0.0316 µM
[8] = second compound 0.1 µM, first compound 0.1 µM
[9] = second compound 0.1 µM, first compound 0.316 µM
[10] = second compound 0.1 µM, first compound 1 µM
[11] = second compound 0.1 µM, first compound 3.16 µM
[12] = second compound 0.1 µM, first compound 10 µM
[13] = second compound 0.316 µM, first compound 0.0316 µM
[14] = second compound 0.316 µM, first compound 0.1 µM
[15] = second compound 0.316 µM, first compound 0.316 µM
[16] = second compound 0.316 µM, first compound 1 µM
[17] = second compound 0.316 µM, first compound 3.16 µM
[18] = second compound 0.316 µM, first compound 10 µM
[19] = second compound 1 µM, first compound 0.0316 µM
[20] = second compound 1 µM, first compound 0.1 µM
[21] = second compound 1 µM, first compound 0.316 µM
[22] = second compound 1 µM, first compound 1 µM
[23] = second compound 1 µM, first compound 3.16 µM
[24] = second compound 1 µM, first compound 10 µM
[25] = second compound 3.16 µM, first compound 0.0316 µM
[26] = second compound 3.16 µM, first compound 0.1 µM
[27] = second compound 3.16 µM, first compound 0.316 µM
[28] = second compound 3.16 µM, first compound 1 µM
[29] = second compound 3.16 µM, first compound 3.16 µM
[30] = second compound 3.16 µM, first compound 10 µM
[31] = second compound 10 µM, first compound 0.0316 µM
[32] = second compound 10 µM, first compound 0.1 µM
[33] = second compound 10 µM, first compound 0.316 µM
[34] = second compound 10 µM, first compound 1 µM
[35] = second compound 10 µM, first compound 3.16 µM
[36] = second compound 10 µM, first compound 10 µM
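Note: spheroids exposed to drugs for seven days before readout.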
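Throughout, for viability, T/C: 100% = DMSO vehicle control wells.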

SMILES: Nc1ccn(C2OC(CO)C(O)C2(F)F)c(=O)n1 (centres undefined) + CN1CCN(c2cc(C(=O)Nc3cc4cc(-c5cnn(C)c5)ccc4cn3)ccn2)CC1
- IC50 (second compound 0.0316 µM): < 31.6 nM
- IC50 (second compound 0.1 µM): < 31.6 nM
- IC50 (second compound 0.316 µM): < 31.6 nM
- IC50 (second compound 1 µM): < 31.6 nM
- IC50 (second compound 3.16 µM): < 31.6 nM
- IC50 (second compound 10 µM): < 31.6 nM
- viability, T/C [1]: 27.6%
- viability, T/C [2]: 15.1%
- viability, T/C [3]: 15.8%
- viability, T/C [4]: 11.4%
- viability, T/C [5]: 9.09%
- viability, T/C [6]: 6.12%
- viability, T/C [7]: 24.4%
- viability, T/C [8]: 15.4%
- viability, T/C [9]: 11.5%
- viability, T/C [10]: 11.9%
- viability, T/C [11]: 5.33%
- viability, T/C [12]: 4.86%
- viability, T/C [13]: 4.07%
- viability, T/C [14]: 3.72%
- viability, T/C [15]: 4.47%
- viability, T/C [16]: 2.24%
- viability, T/C [17]: 1.5%
- viability, T/C [18]: 0.93%
- viability, T/C [19]: 1.32%
- viability, T/C [20]: 0.15%
- viability, T/C [21]: 2.17%
- viability, T/C [22]: 0.1%
- viability, T/C [23]: 0.13%
- viability, T/C [24]: 0.13%
- viability, T/C [25]: 0.98%
- viability, T/C [26]: 3.09%
- viability, T/C [27]: 0.39%
- viability, T/C [28]: 0.24%
- viability, T/C [29]: 1.1%
- viability, T/C [30]: 0.29%
- viability, T/C [31]: 0.28%
- viability, T/C [32]: 0.41%
- viability, T/C [33]: 0.24%
- viability, T/C [34]: 0.83%
- viability, T/C [35]: 0.25%
- viability, T/C [36]: 0.23%

SMILES: O=c1[nH]cc(F)c(=O)[nH]1 + CN1CCN(c2cc(C(=O)Nc3cc4cc(-c5cnn(C)c5)ccc4cn3)ccn2)CC1
- IC50 (second compound 0.0316 µM): 3800 nM
- IC50 (second compound 0.1 µM): 3350 nM
- IC50 (second compound 0.316 µM): < 31.6 nM
- IC50 (second compound 1 µM): < 31.6 nM
- IC50 (second compound 3.16 µM): < 31.6 nM
- IC50 (second compound 10 µM): < 31.6 nM
- viability, T/C [1]: 109%
- viability, T/C [2]: 102%
- viability, T/C [3]: 96.8%
- viability, T/C [4]: 64.4%
- viability, T/C [5]: 56.9%
- viability, T/C [6]: 41.1%
- viability, T/C [7]: 82.2%
- viability, T/C [8]: 90.6%
- viability, T/C [9]: 85.6%
- viability, T/C [10]: 68.1%
- viability, T/C [11]: 52.4%
- viability, T/C [12]: 39.7%
- viability, T/C [13]: 10.1%
- viability, T/C [14]: 12.3%
- viability, T/C [15]: 9.14%
- viability, T/C [16]: 11.6%
- viability, T/C [17]: 14.1%
- viability, T/C [18]: 6.87%
- viability, T/C [19]: 0.14%
- viability, T/C [20]: 0.18%
- viability, T/C [21]: 0.21%
- viability, T/C [22]: 0.12%
- viability, T/C [23]: 0.19%
- viability, T/C [24]: 0.15%
- viability, T/C [25]: 0.72%
- viability, T/C [26]: 0.53%
- viability, T/C [27]: 0.97%
- viability, T/C [28]: 0.5%
- viability, T/C [29]: 1.23%
- viability, T/C [30]: 0.45%
- viability, T/C [31]: 0.21%
- viability, T/C [32]: 0.23%
- viability, T/C [33]: 0.37%
- viability, T/C [34]: 0.21%
- viability, T/C [35]: 0.32%
- viability, T/C [36]: 0.2%
